{"source": "patent US8575163B2", "about": "“Pyrrolopyridinylpyrimidin-2-ylamine derivatives” (Merck Patent GmbH, priority 2009, dated 2013)"}
{"target": "T1, PDK1 (Homo sapiens, UniProt O15530)", "T1 construct": "His6 (N)", "T1 sequence (O15530 51-556 limits assumed)": "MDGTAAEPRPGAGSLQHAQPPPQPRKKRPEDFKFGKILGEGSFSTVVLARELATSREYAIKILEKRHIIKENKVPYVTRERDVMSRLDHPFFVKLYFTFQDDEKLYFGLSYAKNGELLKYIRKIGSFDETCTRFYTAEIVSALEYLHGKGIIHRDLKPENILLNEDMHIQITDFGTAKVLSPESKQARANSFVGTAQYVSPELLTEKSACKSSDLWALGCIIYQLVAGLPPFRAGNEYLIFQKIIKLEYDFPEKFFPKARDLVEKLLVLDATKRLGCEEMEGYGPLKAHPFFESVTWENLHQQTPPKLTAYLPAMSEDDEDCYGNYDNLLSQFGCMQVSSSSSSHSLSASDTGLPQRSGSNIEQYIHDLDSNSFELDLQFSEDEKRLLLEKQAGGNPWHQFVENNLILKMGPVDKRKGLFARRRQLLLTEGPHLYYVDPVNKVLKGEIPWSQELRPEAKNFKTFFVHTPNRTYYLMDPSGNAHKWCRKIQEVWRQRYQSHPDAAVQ", "assay": "Test for the inhibition of PDK1 (flashplate, 33P-ATP)", "format": "biochemical", "details": "His6-PDK1 3.4 nM, 4 μM ATP, 30° C., 60 min", "protocol": "The experimental batches are carried out in a flashplate system with 384 wells/microtitration plate.\nIn each case, the PDK1 sample His6-PDK1(1-50)(3.4 nM), the PDK1 substrate biotin-bA-bA-[…] (400 nM), 4 μM ATP (with 0.2 μCi of ^33 P-ATP/well) and the test substance in 50 μl of conventional experimental solution per well are incubated at 30° C. for 60 min. The test substances are employed in corresponding concentrations (if desired in a dilution series). The control is carried out without test substance. The reaction is stopped using standard methods and washed. The activity of the kinase is measured via the incorporated radioactivity in top count. In order to determine the non-specific kinase reaction (blank value), the experimental batches are carried out in the presence of 100 nM staurosporin.\nThe radioactivity (decompositions per minute) of the blank value (no use of test substance in the presence of staurosporin) is subtracted from all other radioactivity values. The controls (kinase activity without test substance) are set equal to 100 percent and all other radioactivity values (after subtracting the blank value) are expressed set in relation thereto (for example in % of the control).\n[formula] IC50 values (50% inhibition) are determined with the aid of statistics programmes, such as, for example, RS1.", "units": {"IC50": "nM"}}
{"smiles": "CC(O)(c1ccccc1)c1cc(-c2c[nH]c3ncc(-c4cnn(CCC(=O)N5CCOCC5)c4)cc23)nc(N)n1", "note": "(stereo not shown) [A68, 3-(4-{3-[2-amino-6-(1-hydroxy-1-phenylethyl)pyrimidin-4-yl]-1H-pyrrolo-[2,3-b]pyridin-5-yl}pyrazol-1-yl)-1-morpholin-4-ylpropan-1-one]", "IC50": 74}
{"smiles": "COC(=O)CCn1cc(-c2cnc3[nH]cc(-c4cc(C(C)(O)c5ccccc5)nc(N)n4)c3c2)cn1", "note": "(stereo not shown) [A70, methyl 3-(4-{3-[2-amino-6-(1-hydroxy-1-phenylethyl)pyrimidin-4-yl]-1H-pyrrolo[2,3-b]pyridin-5-yl}pyrazol-1-yl)propionate]", "IC50": 48}
{"smiles": "CC(O)(c1ccccc1)c1cc(-c2c[nH]c3ncc(-c4cnn(CCC(N)=O)c4)cc23)nc(N)n1", "note": "(stereo not shown) [A71, 3-(4-{3-[2-amino-6-(1-hydroxy-1-phenylethyl)pyrimidin-4-yl]-1H-pyrrolo-[2,3-b]pyridin-5-yl}pyrazol-1-yl)propionamide]", "IC50": 15}
{"smiles": "COCO[C@@](C)(c1cccc(F)c1)c1cc(-c2c[nH]c3ncc(Br)cc23)nc(N)n1", "note": "[A72, 4-(5-bromo-1H-pyrrolo[2,3-b]pyridin-3-yl)-6-[(S)-1-(3-fluorophenyl)-1-methoxymethoxyethyl]pyrimidin-2-ylamine]", "IC50": 950}
{"smiles": "COCO[C@](C)(c1cccc(F)c1)c1cc(-c2c[nH]c3ncc(Br)cc23)nc(N)n1", "note": "[A73, 4-(5-bromo-1H-pyrrolo[2,3-b]pyridin-3-yl)-6-[(R)-1-(3-fluorophenyl)-1-methoxymethoxyethyl]pyrimidin-2-ylamine]", "IC50": "> 30000"}
{"smiles": "COCOC(C)(c1ccccc1)c1cc(-c2c[nH]c3ncc(-c4cnn(CCC(N)=O)c4)cc23)nc(N)n1", "note": "(stereo not shown) [A74, 3-(4-{3-[2-amino-6-(1-methoxymethoxy-1-phenylethyl)pyrimidin-4-yl]-1H-pyrrolo[2,3-b]pyridin-5-yl}pyrazol-1-yl)propionamide]", "IC50": 68}
{"smiles": "CNC(=O)CCn1cc(-c2cnc3[nH]cc(-c4cc(C(C)(OCOC)c5ccccc5)nc(N)n4)c3c2)cn1", "note": "(stereo not shown) [A75, 3-(4-{3-[2-amino-6-(1-methoxymethoxy-1-phenylethyl)pyrimidin-4-yl]-1H-pyrrolo[2,3-b]pyridin-5-yl}pyrazol-1-yl)-N-methylpropionamide]", "IC50": 79}
{"smiles": "CCOC(C)(c1ccccc1)c1cc(-c2c[nH]c3ncc(-c4cnn(C)c4)cc23)nc(N)n1", "note": "(stereo not shown) [A76, 4-(1-ethoxy-1-phenylethyl)-6-[5-(1-methyl-1H-pyrazol-4-yl)-1H-pyrrolo-[2,3-b]pyridin-3-yl]pyrimidin-2-ylamine]", "IC50": 79}
{"smiles": "COCOC(C)(c1ccccc1)c1cc(-c2c[nH]c3ncc(-c4cnn(CCC(=O)O)c4)cc23)nc(N)n1", "note": "(stereo not shown) [A77, 3-(4-{3-[2-amino-6-(1-methoxymethoxy-1-phenylethyl)pyrimidin-4-yl]-1H-pyrrolo[2,3-b]pyridin-5-yl}pyrazol-1-yl)propionic acid]", "IC50": 43}
{"smiles": "CCOC(=O)CCn1cc(-c2cnc3[nH]cc(-c4cc(C(C)(OCOC)c5ccccc5)nc(N)n4)c3c2)cn1", "note": "(stereo not shown) [A78, ethyl 3-(4-{3-[2-amino-6-(1-methoxymethoxy-1-phenylethyl)pyrimidin-4-yl]-1H-pyrrolo[2,3-b]pyridin-5-yl}pyrazol-1-yl)propionate]", "IC50": 61}
{"smiles": "C=C(CF)n1cc(-c2cnc3[nH]cc(-c4cc(C(C)(O)c5ccccc5)nc(N)n4)c3c2)cn1", "note": "(stereo not shown) [A79, 1-(2-amino-6-{5-[1-(1-fluoromethylvinyl)-1H-pyrazol-4-yl]-1H-pyrrolo[2,3-b]-pyridin-3-yl}pyrimidin-4-yl)-1-phenylethanol]", "IC50": 68}
{"smiles": "CC(O)(c1ccccc1)c1cc(-c2c[nH]c3ncc(-c4cnn(C(CF)CF)c4)cc23)nc(N)n1", "note": "(stereo not shown) [A80, 1-(2-amino-6-{5-[1-(2-fluoro-1-fluoromethylethyl)-1H-pyrazol-4-yl]-1H-pyrrolo[2,3-b]pyridin-3-yl}pyrimidin-4-yl)-1-phenylethanol]", "IC50": 17}
{"smiles": "CC(O)(c1ccccc1)c1cc(-c2c[nH]c3ncc(-c4cnn(CCF)c4)cc23)nc(N)n1", "note": "(stereo not shown) [A81, 1-(2-amino-6-{5-[1-(2-fluoroethyl)-1H-pyrazol-4-yl]-1H-pyrrolo[2,3-b]pyridin-3-yl}pyrimidin-4-yl)-1-phenylethanol]", "IC50": 19}
{"smiles": "CC(C)C(O)(c1ccccc1)c1cc(-c2c[nH]c3ncc(-c4cnn(C)c4)cc23)nc(N)n1", "note": "(stereo not shown) [A82, 1-{2-amino-6-[5-(1-methyl-1H-pyrazol-4-yl)-1H-pyrrolo[2,3-b]pyridin-3-yl]-pyrimidin-4-yl}-2-methyl-1-phenylpropan-1-ol]", "IC50": 78}
{"smiles": "CC(O)(c1ccccc1)c1cc(-c2c[nH]c3ncc(-c4cnn(CC5CC5)c4)cc23)nc(N)n1", "note": "(stereo not shown) [A83, 1-{2-amino-6-[5-(1-cyclopropylmethyl-1H-pyrazol-4-yl)-1H-pyrrolo[2,3-b]-pyridin-3-yl]pyrimidin-4-yl}-1-phenylethanol]", "IC50": 59}
{"smiles": "CC(O)(c1ccccc1)c1cc(-c2c[nH]c3ncc(-c4cnn(CC(F)F)c4)cc23)nc(N)n1", "note": "(stereo not shown) [A84, 1-(2-amino-6-{5-[1-(2,2-difluoroethyl)-1H-pyrazol-4-yl]-1H-pyrrolo[2,3-b]-pyridin-3-yl}pyrimidin-4-yl)-1-phenylethanol]", "IC50": 50}
{"smiles": "Cn1cc(-c2cnc3[nH]cc(-c4cc(C(O)(c5ccccc5)C5CCCC5)nc(N)n4)c3c2)cn1", "note": "(stereo not shown) [A85, {2-amino-6-[5-(1-methyl-1H-pyrazol-4-yl)-1H-pyrrolo[2,3-b]pyridin-3-yl]-pyrimidin-4-yl}cyclopentylphenylmethanol]", "IC50": 52}
{"smiles": "CC(O)(c1ccccc1)c1cc(-c2c[nH]c3ncc(Br)cc23)nc(N)n1", "note": "(stereo not shown) [A86, 1-[2-amino-6-(5-bromo-1H-pyrrolo[2,3-b]pyridin-3-yl)pyrimidin-4-yl]-1-phenylethanol]", "IC50": 89}
{"smiles": "CCCC(C)(O)c1cc(-c2c[nH]c3ncc(-c4cnn(C(C)C)c4)cc23)nc(N)n1", "note": "(stereo not shown) [A87, 2-{2-amino-6-[5-(1-isopropyl-1H-pyrazol-4-yl)-1H-pyrrolo[2,3-b]pyridin-3-yl]-pyrimidin-4-yl}pentan-2-ol]", "IC50": 16}
{"smiles": "CC(C)n1cc(-c2cnc3[nH]cc(-c4cc(C(C)(O)C(C)C)nc(N)n4)c3c2)cn1", "note": "(stereo not shown) [A88, 2-{2-amino-6-[5-(1-isopropyl-1H-pyrazol-4-yl)-1H-pyrrolo[2,3-b]pyridin-3-yl]-pyrimidin-4-yl}-3-methylbutan-2-ol]", "IC50": 28}
{"smiles": "Cc1ccccc1C(C)(O)c1cc(-c2c[nH]c3ncc(-c4cnn(CCO)c4)cc23)nc(N)n1", "note": "(stereo not shown) [A89, 1-(2-amino-6-{5-[1-(2-hydroxyethyl)-1H-pyrazol-4-yl]-1H-pyrrolo[2,3-b]-pyridin-3-yl}pyrimidin-4-yl)-1-o-tolylethanol]", "IC50": 19}
{"smiles": "Cc1cccc(C(C)(O)c2cc(-c3c[nH]c4ncc(-c5cnn(CCO)c5)cc34)nc(N)n2)c1", "note": "(stereo not shown) [A94, 1-(2-amino-6-{5-[1-(2-hydroxyethyl)-1H-pyrazol-4-yl]-1H-pyrrolo[2,3-b]-pyridin-3-yl}pyrimidin-4-yl)-1-m-tolylethanol]", "IC50": 60}
{"smiles": "CNc1nc(-c2c[nH]c3ncc(-c4cnn(CCO)c4)cc23)cc(C(C)(O)c2ccccc2)n1", "note": "(stereo not shown) [A95, 1-(6-{5-[1-(2-hydroxyethyl)-1H-pyrazol-4-yl]-1H-pyrrolo[2,3-b]pyridin-3-yl}-2-methylaminopyrimidin-4-yl)-1-phenylethanol]", "IC50": 18}
{"smiles": "CCC(O)(c1ccccc1)c1cc(-c2c[nH]c3ncc(-c4cnn(CCO)c4)cc23)nc(N)n1", "note": "(stereo not shown) [A98, 1-(2-amino-6-{5-[1-(2-hydroxyethyl)-1H-pyrazol-4-yl]-1H-pyrrolo[2,3-b]-pyridin-3-yl}pyrimidin-4-yl)-1-phenylpropan-1-ol]", "IC50": 12}
{"smiles": "CC(O)(c1ccccc1)c1cc(-c2c[nH]c3ncc(-c4cnn(CCO)c4)cc23)nc(N)n1", "note": "(stereo not shown) [A99, 1-(2-amino-6-{5-[1-(2-hydroxyethyl)-1H-pyrazol-4-yl]-1H-pyrrolo[2,3-b]-pyridin-3-yl}pyrimidin-4-yl)-1-phenylethanol]", "IC50": 41}
{"smiles": "CC(O)(c1ccccc1)c1cc(-c2c[nH]c3ncc(-c4cncnc4)cc23)nc(N)n1", "note": "(stereo not shown) [A100, 1-[2-amino-6-(5-pyrimidin-5-yl-1H-pyrrolo[2,3-b]pyridin-3-yl)pyrimidin-4-yl]-1-phenylethanol]", "IC50": 1700}
{"smiles": "CC(O)(c1ccccc1)c1cc(-c2c[nH]c3ncc(-c4ccnnc4)cc23)nc(N)n1", "note": "(stereo not shown) [A101, 1-[2-amino-6-(5-pyridazin-4-yl-1H-pyrrolo[2,3-b]pyridin-3-yl)pyrimidin-4-yl]-1-phenylethanol]", "IC50": 740}
{"smiles": "COCOC(C)(c1ccnc(C)c1)c1cc(-c2c[nH]c3ncc(-c4cnn(C)c4)cc23)nc(N)n1", "note": "(stereo not shown) [A108, 4-[1-methoxymethoxy-1-(2-methylpyridin-4-yl)ethyl]-6-[5-(1-methyl-1H-pyrazol-4-yl)-1H-pyrrolo[2,3-b]pyridin-3-yl]pyrimidin-2-ylamine]", "IC50": 49}
